Experimental data taken from patent US20240181093A1 (ADENOBIO N.V, priority 2012, published 2024).
Values joined by “and” are separate entries in the source; they are usually repeats but may differ in a detail not shown here. Equal entries are not always repeated. Marks after values point to notes of the source that are not given here.

Experiments:
coronary hyperaemia = conditions: cited from earlier work
[1] = test system: Left anterior descending coronary artery (LAD); experiment: Transthoracic doppler echocardiography (TTDE) flow velocity measurements at rest and under pharmacologic stress; type: in vivo, human; conditions: for Average Optimal Effect Duration: combined with adenosine bolus
Description: The value of absolute coronary blood flow (CBF) may be substituted by the value of CBF velocity (peak and mean velocities). […] Given that blood flow=velocity flow×cross section, if cross section is constant, velocity variations reflect blood flow variations.
TTDE is a non invasive approach conducted under the same conditions as for thallium or technetium scintigraphy (intravenous injection) and another way to study Coronary Flow Reserve (CFR).

patients = conditions: cited from earlier work
[2] = Table 1: same coronary patient, 5 studies, second data of cell, adenosine 140 μg/kg/min 2 minute infusion, combination 30 second IV bolus
[3] = bolus independently of the patient's weight

Nc1ncnc2c1ncn2[C@@H]1O[C@H](CO)[C@@H](O)[C@H]1O [Adenosine, adenosine]
time to near-maximal vasodilatation, on average (coronary hyperaemia; infusion): 60 s | DOE = Duration of optimal effect ([1]; Table 1: same coronary patient): 60 to 90 s | RBL = Return to base line ([1]; Table 1: same coronary patient): 40 to 50 s | TTP = Time to peak ([1]; Table 1: same coronary patient): 40 to 50 s | MV = Mean Velocity, under stress conditions [1, 2]: 78 cm/s and 80 cm/s and 82 cm/s and 75 cm/s and 74 cm/s | PV = Peak Velocity, under stress conditions [1, 2]: 108 cm/sec and 96 cm/sec and 98 cm/sec and 105 cm/sec | CR (based on MV) ([1]; Table 2: three different coronary patients, one line per patient, listed as St. Adenosine): 2.12 and 2.36 and 2.88 | MV (mean velocity), under stress conditions ([1]; Table 2: three different coronary patients, one line per patient, second data of cell, St. adenosine 140 μg/kg/min infusion about 2 minutes, combination IV 30 second bolus): 50 cm/s and 33 cm/s and 75 cm/s | adverse reaction: flushing (patients; adenosine infusion, most frequently reported): 44% | Other side effects, incidence (patients; adenosine infusion): below 10% | adverse reaction: chest pain or chest discomfort (patients; adenosine infusion): 40% | adverse reaction: dyspnoea (patients; adenosine infusion): 28% | adverse reaction: gastrointestinal discomfort (patients; adenosine infusion): 13% | adverse reaction: headache (patients; adenosine infusion): 18% | adverse reaction: throat or neck or jaw discomfort (patients; adenosine infusion): 15%

OCCN(CCO)c1nc(N2CCCCC2)c2nc(N(CCO)CCO)nc(N3CCCCC3)c2n1 [Dipyridamole, dipyridamole]
duration of peak of activity (coronary hyperaemia; in vivo): 20 to 30 min | Average Optimal Effect Duration ([1]; Dipyridamole dose 9 mg, regardless of the dose of adenosine): 30 to 40 s | Average Optimal Effect Duration ([1]; Dipyridamole dose 10 mg, regardless of the dose of adenosine): 40 to 50 s | Average Optimal Effect Duration ([1]; Dipyridamole dose 12 mg, regardless of the dose of adenosine): 40 to 90 s | Average Optimal Effect Duration ([1]; Dipyridamole dose 14 mg, prolongs side effects when they occur): 60-100** sec | coronary effect and side effect ([1]; alone as a 12 mg or 14 mg bolus): no coronary effect and no side effect | coronary effect or symptom ([1]; injected as a bolus alone at the dose of 12 mg (n=5 patients)): does not induce any significant coronary effect or symptom

Nc1nc(N/N=C/C2CCCCC2)nc2c1ncn2[C@@H]1O[C@H](CO)[C@@H](O)[C@H]1O [binodenoson]
duration of action (coronary hyperaemia; in vivo): 10 ± 6 min

CNC(=O)c1cnn(-c2nc(N)c3ncn([C@@H]4O[C@H](CO)[C@@H](O)[C@H]4O)c3n2)c1 [regadenoson]
efficacy and tolerance at 500 μg (coronary hyperaemia; [3]): same efficacy as 400 μg but tolerance is worst | efficacy threshold dose in many but not all patients (coronary hyperaemia; [3]): 300 µg | dose efficient in all patients (coronary hyperaemia; bolus independently of the patient's weight, marketed dose): 400 µg | time after which coronary hyperaemia is induced (coronary hyperaemia; in vivo): 30 s | side effects as compared to the reference drug Adenoscan (adenosine) (patients; in vivo): increase in dyspnea, headache and gastrointestinal disorders
